# Measurements from patent publication US20220370553A1, “PREBIOTIC-INDUCED ANTI-TUMOR IMMUNITY” (Sanford Burnham Prebys Medical Discovery Institute, priority 2019, published 2022).
# Legend:
# [1] = test system: N-Ras mutant melanoma tumor cells (MaNRAS1); assay: Growth of N-Ras mutant melanoma tumors with prebiotics with or without MEKi; format: in vivo, C57BL/6 mice
# Procedure: FIG. 7A C57BL/6 mice were injected (s.c.) with NRAS^Q61K mouse melanoma cells (1×10^6) (n=10). The mice were administered with either a control diet alone, or one supplemented with mucin (3%) in drinking water or inulin (15%) in chow starting 14 days prior to tumor inoculation. When tumors reached a volume of 10-20 mm^2, mice were treated with MEKi (PD325901) administered by gavage (10 mg/kg, daily), alone or in combination with inulin or mucin, as indicated. Tumor volume was assessed every 4 days. […] Data are representative of two independent experiments. Graphs show the mean±s.e.m. *P<0.05, **P<0.005, ***P<0.001, ****P<0.0001 by two-way ANOVA with Tukey's correction (A) or one-way ANOVA with Tukey's correction (B-D).
# Animals and tumor models. […] Male 6-8-week-old mice were used for all experiments. […] All mice were fed an autoclaved chow diet ad libitum (LabDiet 5K67, Purina Foods). […] Mouse selection for experiments was not formally randomized or blinded. For tumor growth experiments, mice were injected subcutaneously (s.c.) with 1×10^6 tumor cells. Tumor size was measured twice a week for calculation of tumor volume. Tumors were weighed at the time of excision.
# Mucin and inulin treatment. For mucin treatment, C57BL/6 mice were subjected to control or water supplemented with 3% mucin (Lee Biosolutions) prior to (14 days) and during tumor inoculation. Water was changed every other day. For inulin treatment, mice were received a diet (TD. 94048, AIN-93M, Purified Diet, ENVIGO) enriched with long-chain inulin by substituting all of sucrose and 5% of corn starch in the control diet or a modified diet (TD. 160256, Modified AIN-93M, Diet w 15% inulin, ENVIGO) prior to (14 days) and during tumor inoculation. Diets were changed 2 times a week.
# Experiments were conducted to determine whether prebiotics impacted the effectiveness of MEK inhibitor (MEKi) treatment on tumor growth control and treatment resistance.
# [2] = test system: Yumm1.5 tumors; assay: Growth of Yumm1.5 melanoma tumors in prebiotic-fed mice; format: in vivo, C57BL/6 mice; conditions: mucin 3% in drinking water or inulin 15% w/w chow from 2 weeks prior to inoculation of 1×10^6 Yumm1.5 cells
# Excerpt: (§1) FIG. 2B, Quantification of tumor-infiltrating effector (CD44hi) CD4+, CD8+ and CD45+ T cells from mice treated as in FIG. 2A (n=10). FIG. 2C, Quantification of tumor-infiltrating, IFN-g-producing CD4+ T cells from mice treated as in FIG. 2A (n=10). FIG. 2D, Quantification of tumor-infiltrating total DCs and subsets in mice treated as in FIG. 2A (n=10). FIG. 2E, MFI of MHC class I and MHC class II on DCs from the tumors of mice treated as in FIG. 2A (n=10). […] Graphs show the mean s.e.m. *P<0.05, **P<0.005, ***P<0.001,****P<0.0001 by two-way ANOVA with Tukey's correction (A) and by one-way ANOVA with Tukey's correction (B-E).
# [3] = test system: MC-38 mouse colorectal cancer cells; assay: Flow cytometry of tumor-infiltrating immune cells in MC-38 tumors; format: in vivo, C57BL/6 mice
# Procedure: (§2) Tumor digestion. Tumors were excised, minced, and digested with 1 mg/ml collagenase D (Roche) and 100 μg/ml DNase I (Sigma) at 37° C. for 1 h. Digests were then passed through a 70-μm cell strainer to generate a single-cell suspension. The cells were washed twice with PBS containing 2 mM EDTA, and then stained for flow cytometry.
# (§3) Flow cytometry. Tumor-derived single-cell suspensions were washed twice with FACS staining buffer, fixed for 15 min with 1% formaldehyde in PBS, washed twice, and resuspended in FACS staining buffer. For intracellular cytokine staining, cells were resuspended in complete RPMI-1640 (containing 10 mM HEPES, 1% non-essential amino acids and L-glutamine, 1 mM sodium pyruvate, 10% heat-inactivated fetal bovine serum (FBS), and antibiotics) supplemented with 50 U/mL IL-2 (NCI), […] brefeldin A (BFA, Sigma), and incubated with phorbol myristate acetate (10 ng/ml) and ionomycin (0.5 μg/ml) at 37° C. The cells were then fixed and permeabilized using a Cytofix/Cytoperm Kit (BD Biosciences) before staining. Antibodies to the following proteins were used: CD45.2 (104), CD8a (53-6.7), CD4 (GK1.5), CD44 (IM7), TNF-α (MP6-XT22), IFN-γ (XMG1.2), CD11c (N418), CD11b (M1/70), MHC class II (M5/114.15.2), PDCA (129c1), and B220 (RA3-6B2) from BioLegend, and antibodies to IL-2 (JES6-5H4) and MHC class I (AF6-88.5.5.3) from eBioscience. All data were collected on an LSRFortessa (BD Biosciences) and analyzed using FlowJo Software (Tree Star).
# (§4) MC-38 mouse colorectal cancer cells (1×10^6) were inoculated, and diets were continued after inoculation.
# [4] = test system: intestinal epithelial cells; assay: qRT-PCR of inflammatory mediators in intestinal epithelial cells in vivo; design: species or system C57BL/6 mice; conditions: inulin 15% in chow, naïve mice, 2 weeks
# Excerpt: FIG. 15 illustrates effects of mucin and inulin on expression of inflammatory mediators by intestinal epithelial cells in vivo. qRT-PCR data are shown for mRNA levels of the indicated inflammatory mediators in intestinal epithelial cells from mucin or inulin-treated mice (n=4). Data are representative of two independent experiments. Graphs show the mean s.e.m. *P<0.05, **P<0.005, one-way ANOVA with Tukey's correction.
# Isolation of intestinal epithelial cells. A 10 cm section of mouse small intestine was opened longitudinally, minced, washed in 150 mM NaCl containing 1 mM DTT, and then resuspended in dissociation buffer (130 mM NaCl, 10 mM EDTA, 10 mM Hepes [pH 7.4], 10% FCS, and 1 mM DTT). The sections were incubated at 37° C. for 30 min with vigorous shaking to release the epithelial cells from the lamina propria. The epithelial cell suspension was then carefully aspirated, centrifuged, and washed in ice-cold PBS.
# The effect of mucin and inulin on intestinal epithelial cells was evaluated in vivo. To this end, mucin (3% in drinking water) or inulin (15% in chow) were administered to naïve C57BL/6 mice for 2 weeks. Intestinal epithelial cells were isolated from small intestine and were assessed for the level of select cytokines and chemokines that are implicated in the activation of the immune response and anti-tumor immunity.
# [5] = test system: MC-38 mouse colorectal cancer cells; assay: Growth of MC-38 colorectal cancer tumors in prebiotic-fed mice; format: in vivo, C57BL/6 mice; conditions: 3% mucin in drinking water or 15% inulin diet from two weeks prior to inoculation
# Excerpt: as §4
# [6] = test system: gut microbiota; format: in vivo, C57BL/6 mice
# Procedure: Bacterial DNA extraction and 16S library preparation. […] Mouse fecal pellets were frozen on dry ice, and stored at −80° C. Bacterial DNA was extracted using the QIAmp Fast DNA Stool Mini Kit (Qiagen). To ensure efficient cell lysis, a 5-min bead-beating step using a Mini-Beadbeater-16 was included (Biospec Products, OK, USA). Library preparation for the Illumina MiSeq platform was performed by amplification of the V3-V4 region of the bacterial 16S ribosomal DNA gene using
# C. Adapter and barcode sequences for dual indices were used as described by Illumina. PCR clean up steps were performed with QIAquick 96-PCR Clean up kit (Qiagen, Germany), and library quantification was performed using a KAPA Library Quantification Kit for Illumina platforms (KAPA Biosystems, MA, USA). An Experion Automated Gel Electrophoresis System (Bio-Rad, CA, USA) was used to measure the DNA concentration and purity of the pooled libraries. The 16S libraries were sequenced at Novagene (Beijing, China) and the SBP sequencing Core.
# 16S sequencing data processing. The original FASTQ files from Illumina 250 basepair paired-end sequencing of the samples were processed using a novel 16S amplicon sequencing pipeline HiMap (http://github.com/taolonglab/himap; BioRxiv 565572). The output of HiMap is Operational Strain Unit (OSU) which contains one or more bacterial strains that best match the 16S sequence and cannot be further distinguished. The percentage similarity between the 16S sequence and the aligned region of 16S rRNA genes of the strains in the OSU is indicated. OSUs mapped to the same strains are grouped together (adding read counts) if percentage similarities are within 3%. Read counts are converted into relative abundance as described in HiMap. Log 10-transformed relative abundances were used for comparisons between samples under different experimental conditions.
# [7] = test system: Bacteroides spp.; assay: Anaerobic fecal cultures with 1% prebiotic, 16S rDNA quantification; format: cell-based; conditions: fecal cultures of 12 healthy human subjects, 3-4 days at 37° C.
# Procedure: (§5) Fecal samples derived from 12 healthy human subjects were cultivated in the presence or absence of 1% prebiotic. 16S rDNA sequences corresponding to Bifidobacterium, Bacteroides and Akkermansia muciniphila were quantified. Data are representative of three independent experiments. Graphs show the mean±s.e.m. *P<0.05, **P<0.005, ***P<0.001, ****P<0.0001 by one-way ANOVA with Tukey's correction.
# (§6) Anaerobic fecal cultures. […] Anaerobic cultures (9% H2, 81% N2) were grown statically for 3-4 days at 37° C. and grown to approximate saturation.
# (§7) Chemically-defined medium (CDM). CDM contains 50 mM HEPES, 2.2 mM KH2PO4, 10 mM Na2HPO4, 60 mM NaHCO3, 4 mM of each amino acid, except leucine (15 mM), 10 mL ATCC, Trace Mineral Supplement. CDM contained nucleoside bases (100 mg/L), inosine, xanthine, adenine, guanine, cytosine, thymidine and uracil (400 mg/L). CDM contained choline (100 mg/L), ascorbic acid (500 mg/L), lipoic acid (2 mg/L), hemin (1.2 mg/L) and myo-inositol (400 mg/L). Resazurin (1 mg/L) was added to visually monitor dissolved oxygen. The pH of the media was adjusted to 7.4.
# (§8) Fecal samples derived from 12 healthy, vegetarian human subjects were cultivated in a chemically-defined medium the presence or absence of 1% prebiotic. Anaerobic cultures (9% H2, 81% N2) were grown statically for 3-4 days at 37° C. and grown to approximate saturation.
# [8] = test system: CD8+ T cells; assay: qRT-PCR of cytokine and chemokine mRNAs in CD8+ T cells in vitro; format: cell-based, mice; conditions: 0.05 or 0.5 mg/ml in vitro
# Excerpt: Data are representative of two independent experiments. Graphs show the mean±s.e.m. *P<0.05, **P<0.005, ***P<0.001, ****P<0.0001 one-way ANOVA with Tukey's correction.
# RNA extraction and qRT-PCR analyses. Total RNA was extracted from tumor samples individually using the RNeasy Fibrous Tissue Midi kit (QIAGEN) or cells treated as indicated using High Capacity Reverse Transcriptase kits (Invitrogen) according to the manufacturer's protocol. Purity and concentration of extracted RNA were checked and quantified by reading at 260 and 280 nm in a NanoDrop spectrophotometer (Thermo Fisher). The qRT-PCR analyses were performed using Syber Green RT-PCR kits (Invitrogen) on a Bio-Rad CFX Connect Real-Time system. Expression levels normalized to 18S or Tubb5 controls.
# [9] = test system: Bifidobacterium spp.; assay: Anaerobic fecal cultures with 1% prebiotic, 16S rDNA quantification; format: cell-based, human; conditions: in two of these cultures
# Procedure: as §5, §6, §7, §8
# [10] = test system: Yumm1.5 tumors; assay: Flow cytometry of tumor-infiltrating immune cells in Yumm1.5 tumors; format: in vivo, C57BL/6 mice; conditions: 20 days following tumor inoculation
# Excerpt: as §1, §2, §3
Compound,"N-Ras mutant tumor growth ([1]; MEKi (PD325901) 10 mg/kg daily by gavage, alone or with prebiotic)",melanoma tumor growth [2],"CD4+ or CD8+ T cells, CD45+ cells, cytokine production, DCs and DC subsets in tumors [3]","anti-tumor immune responses, MHC class II and I expression on DCs [3]","levels of NOD2, IL-6 and CXCL2 mRNA in intestinal epithelial cells [4]",growth of colon cancer MC-38 tumors [5],phylotype group related to Parasutterella excrementihominis ([6]; in the absence of MEKi),taxa increased in relative abundance ([6]; in the absence of MEKi),Akkermansia muciniphila ([6]; inulin+MEKi treated mice compared to inulin alone),"control of N-Ras mutant tumors ([1]; in the absence of MEKi, mucin 3% in water or inulin 15% in chow)",intrinsic resistance of MaN-Ras melanoma cells to MEKi ([1]; inulin-fed mice treated with MEKi),relative abundance of Bacteroides spp. [7],expression of multiple pro-inflammatory mediators in CD8+ T cells [8],Bifidobacterium spp. [9],MHC class I and MHC class II on tumor-resident DCs [10],dendritic cell subsets including pDCs and CD8a+ conventional DCs in tumors [10],"effector (CD44hi) CD4+ and CD8+ T cells, and CD45+ cells in tumors ([10]; compared to control mice)"
"O=C(NOC[C@H](O)CO)c1ccc(F)c(F)c1Nc1ccc(I)cc1F [MEKi, PD325901, reference compound]",effectively controlled tumor growth,,,,,,,,,,,,,,,,
inulin,,attenuated,No differences,enhanced,increased,attenuated,notable increase,primarily increased the relative abundance of taxa mapped in or near Clostridium cluster XIVa,robustly enriched,modestly controlled,delayed,increased,increased expression,strong increase,higher levels,increased,enrichment
